In general, AC50 refers to the concentration at which the activity in the assay is half-maximal.

One assay is described as follows: cells. It counts as functional.
For assay [1], the target named is T1, Rac GTPase-activating protein 1 (Homo sapiens, UniProt Q9H0H5).
T1 sequence (Q9H0H5 whole entry): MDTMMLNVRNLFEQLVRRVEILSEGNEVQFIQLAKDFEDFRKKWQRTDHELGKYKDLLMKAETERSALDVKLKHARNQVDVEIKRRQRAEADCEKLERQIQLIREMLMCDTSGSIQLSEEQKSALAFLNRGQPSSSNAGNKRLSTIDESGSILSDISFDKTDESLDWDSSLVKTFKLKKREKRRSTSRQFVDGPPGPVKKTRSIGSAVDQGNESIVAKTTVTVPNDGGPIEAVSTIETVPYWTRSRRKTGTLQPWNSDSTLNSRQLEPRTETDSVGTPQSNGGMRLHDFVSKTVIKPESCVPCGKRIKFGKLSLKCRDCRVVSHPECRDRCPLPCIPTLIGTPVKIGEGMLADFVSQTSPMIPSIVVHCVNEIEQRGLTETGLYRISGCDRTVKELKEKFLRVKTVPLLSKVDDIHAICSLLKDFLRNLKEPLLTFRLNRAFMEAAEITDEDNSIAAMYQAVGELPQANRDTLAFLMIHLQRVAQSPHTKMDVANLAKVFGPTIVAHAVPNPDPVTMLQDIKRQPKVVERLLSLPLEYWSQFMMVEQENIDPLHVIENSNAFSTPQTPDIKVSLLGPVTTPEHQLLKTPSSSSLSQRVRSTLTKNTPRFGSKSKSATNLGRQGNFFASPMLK
Briefly: blockers of MgcRacGAP-driven Rac1 GTP hydrolysis – biochemical, ADP Hunter fluorescence, primary and confirmatory, confirmation (AID 624330). The format is functional.

Assay [2] has as its system Streptococcus sp. 'group A'. Briefly: Streptococcus pyogenes SK(-)GAS viability under kanamycin – luminescence, BacTiterGlo, confirmation, counter-screen for streptokinase expression inhibitor project, dose response (AID 1900). It counts as functional, organism-based. (The purpose of a counterscreen is to sort out artefacts and off-target activity.)
For a further assay, the target named is T2, Streptokinase A (Streptococcus pyogenes serotype M1, UniProt P10520).
T2 sequence (P10520 whole entry): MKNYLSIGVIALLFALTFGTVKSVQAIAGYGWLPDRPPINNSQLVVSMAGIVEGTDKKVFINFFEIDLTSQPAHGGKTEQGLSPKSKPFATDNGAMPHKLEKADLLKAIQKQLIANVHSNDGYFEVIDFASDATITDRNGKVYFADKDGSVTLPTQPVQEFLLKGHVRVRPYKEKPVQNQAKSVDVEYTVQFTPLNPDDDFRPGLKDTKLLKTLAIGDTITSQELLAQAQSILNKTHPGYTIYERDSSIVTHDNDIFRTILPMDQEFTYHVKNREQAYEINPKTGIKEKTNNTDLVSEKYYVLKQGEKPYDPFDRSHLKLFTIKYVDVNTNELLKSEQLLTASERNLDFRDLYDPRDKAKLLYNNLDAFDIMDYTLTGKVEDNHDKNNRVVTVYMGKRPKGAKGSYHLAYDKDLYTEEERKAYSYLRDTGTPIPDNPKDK
Briefly: viability-normalized secreted streptokinase activity reduction – plasminogen activation absorbance, OD405, dose response (AID 1914).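 Note: secreted streptokinase activity via plasminogen activation per viability signal from cell pellet.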 The format is functional, Streptococcus pyogenes M1 GAS.

The subject of another assay is Streptococcus. Briefly: GAS UMAA2166 growth inhibition – luminescence, BacTiterGlo, counter-screen for streptokinase expression inhibitor project, dose response (AID 1915).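 Note: potency for reduction of bacterial viability or growth.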 It counts as functional, organism-based.
The next assay concerns the target Cytochrome P450 2D6 (Homo sapiens, UniProt P10635).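 Note: CYP2D6 member of a cytochrome P450 panel assay.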
Another assay deals with Cytochrome P450 3A4 (Homo sapiens, UniProt P08684).
Chain of Cytochrome P450 3A4 (P08684 whole entry): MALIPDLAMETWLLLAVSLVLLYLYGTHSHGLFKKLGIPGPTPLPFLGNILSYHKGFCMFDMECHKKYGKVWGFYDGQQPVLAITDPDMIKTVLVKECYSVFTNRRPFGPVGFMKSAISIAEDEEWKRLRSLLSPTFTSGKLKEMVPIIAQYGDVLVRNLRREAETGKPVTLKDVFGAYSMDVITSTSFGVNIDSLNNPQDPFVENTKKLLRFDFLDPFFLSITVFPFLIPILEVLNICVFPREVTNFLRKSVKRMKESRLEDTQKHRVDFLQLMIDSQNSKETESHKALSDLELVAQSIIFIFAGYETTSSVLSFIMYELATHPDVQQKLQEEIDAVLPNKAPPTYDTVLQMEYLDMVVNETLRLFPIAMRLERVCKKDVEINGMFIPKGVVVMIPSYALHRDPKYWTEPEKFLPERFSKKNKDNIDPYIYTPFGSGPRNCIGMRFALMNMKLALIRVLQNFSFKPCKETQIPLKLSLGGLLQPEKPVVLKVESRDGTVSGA
A short description of assay [3]: Trypanosoma cruzi growth suppression in host cells – NIH3T3 host cells, beta-gal luminescence, confirmation (AID 2044).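 Note: intracellular parasites grown in NIH/3T3 mouse fibroblasts as host cells; luminescent beta-galactosidase reporter signal from transgenic T. cruzi replicating inside host cells; inhibitors lower the luminescence signal.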 It counts as functional, cell-based.
The nature of assay [4]: NIH3T3 cell viability loss – ATP luminescence, mouse fibroblasts, counter-screen, dose response (AID 2010).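 Note: cells exposed to compound for about 90 hours before reading.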 It counts as functional, cell-based.
Assay [5] addresses T3, Corticotropin-releasing factor receptor 2/Corticotropin-releasing factor-binding protein (Homo sapiens, UniProt P24387+Q13324).
T3 sequence (Q13324 whole entry): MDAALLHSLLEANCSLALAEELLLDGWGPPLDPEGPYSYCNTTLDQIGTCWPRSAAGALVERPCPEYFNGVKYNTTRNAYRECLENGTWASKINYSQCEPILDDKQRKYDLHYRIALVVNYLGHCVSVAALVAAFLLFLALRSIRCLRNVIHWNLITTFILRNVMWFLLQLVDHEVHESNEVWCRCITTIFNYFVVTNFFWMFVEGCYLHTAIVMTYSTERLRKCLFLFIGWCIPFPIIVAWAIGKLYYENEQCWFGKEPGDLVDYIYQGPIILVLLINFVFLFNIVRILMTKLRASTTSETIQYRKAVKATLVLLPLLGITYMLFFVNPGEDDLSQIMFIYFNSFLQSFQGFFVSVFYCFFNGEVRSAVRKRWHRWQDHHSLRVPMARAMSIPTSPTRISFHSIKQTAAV
T3 sequence (P24387 whole entry): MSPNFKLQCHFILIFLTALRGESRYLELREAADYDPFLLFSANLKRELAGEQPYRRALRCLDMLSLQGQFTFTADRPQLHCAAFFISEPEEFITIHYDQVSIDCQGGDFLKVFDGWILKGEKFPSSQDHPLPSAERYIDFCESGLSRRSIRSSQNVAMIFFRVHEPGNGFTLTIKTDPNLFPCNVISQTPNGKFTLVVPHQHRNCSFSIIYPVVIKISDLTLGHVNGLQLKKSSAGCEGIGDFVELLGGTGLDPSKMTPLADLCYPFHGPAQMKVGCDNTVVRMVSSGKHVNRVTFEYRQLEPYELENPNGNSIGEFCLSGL
Briefly: Dose Response confirmation of uHTS hits for small molecule antagonists of the CRF-binding protein and CRF-R2 receptor complex. It counts as functional. Conditions: read-out: IC50_Mean.

Assay [6] has as its target T3, Corticotropin-releasing factor receptor 2/Corticotropin-releasing factor-binding protein. Briefly: activators of CRF receptor 2 with binding protein – uHTS hits, confirmation (AID 602473). The format is functional. The following applies: read-out: EC50_Mean.
Assay [7] is described as follows: Luminescence Cell-Based Dose Response HTS to Identify Activators of Luciferase Translation or Activity in H4 […] Cells. [Related pubchem assays: 1829 (Project Summary), 1814 (Primary HTS)]. The format is functional.
The next assay relates to H4. Briefly: Luminescence Cell-Based Dose Response HTS to Identify Activators of 5'UTR Stem-Loop Driven Prion Protein mRNA Translation in H4 Neuroglioblastoma Cells. [Related pubchem assays: 1829 (Project Summary), 1814 (Primary HTS)]. It counts as functional. The following applies: Homo sapiens.

Activity calls are given as the source filed them. Cut-off read from the data, not from the text of the source, for most assays here: actives have a measured EC50 and inactives only a lower limit.

Chain of Cytochrome P450 2D6 (P10635 whole entry): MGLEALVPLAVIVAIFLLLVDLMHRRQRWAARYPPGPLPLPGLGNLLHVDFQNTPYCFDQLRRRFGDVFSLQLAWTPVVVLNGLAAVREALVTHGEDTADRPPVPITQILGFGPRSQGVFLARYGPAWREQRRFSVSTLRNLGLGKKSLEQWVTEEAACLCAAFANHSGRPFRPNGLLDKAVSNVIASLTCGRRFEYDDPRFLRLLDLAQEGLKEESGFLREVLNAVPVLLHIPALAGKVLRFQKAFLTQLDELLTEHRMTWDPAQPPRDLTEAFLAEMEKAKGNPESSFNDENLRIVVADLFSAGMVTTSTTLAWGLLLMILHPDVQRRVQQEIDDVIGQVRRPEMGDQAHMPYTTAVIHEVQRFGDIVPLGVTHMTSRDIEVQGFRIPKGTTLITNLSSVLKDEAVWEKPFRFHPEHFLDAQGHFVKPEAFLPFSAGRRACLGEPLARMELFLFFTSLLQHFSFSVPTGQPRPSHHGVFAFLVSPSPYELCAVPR

For `O=C(COc1ccc(Nc2ccccc2)cc1)OCC(=O)N1CCCCC1`, the values for the IC50 (in the assay “cells”; in assay [1]) were 2.49 µM (active) and 98.2 µM (active), respectively. As to `Cc1cc(C)c(OCCCCN2CCC(C)CC2)c(Br)c1`, the IC50 in [1] was 212 µM (active). For `OC(COc1cccc2ccccc12)CN1CCN(c2cccc(Cl)c2)CC1` (stereo not drawn), the values for the EC50 (in assay [2]; at Streptokinase A; in the assay on Streptococcus) were 15.5 µM (active), 20.1 µM (active) and 31 µM (active), respectively.

As to `CCOC(=O)c1cnn(-c2nc(-c3ccccc3)cs2)c1C(F)(F)F`, the EC50 in assay [2] was 14.6 µM (active); on Streptokinase A, 15.6 µM (active); in the assay with Streptococcus, > 150 µM (not active).

Regarding `CC(=O)n1c(COS(C)(=O)=O)nc2ccccc21`, the AC50 was 5.01 µM (inconclusive) on Cytochrome P450 2D6 and 3.16 µM (inconclusive) on Cytochrome P450 3A4. `NNc1nc(-c2ccccc2)c2cc(Br)ccc2n1`: the EC50 in assay [2] is 10.1 µM (active); at Streptokinase A, > 150 µM (not active); in the assay on Streptococcus it was 41.8 µM (active). Turning to `Clc1cc(Br)ccc1OCCOCCN1CCCC1`, the EC50 in assay [3] was 1.46 µM (active); in [4], > 60 µM (not active). Moreover, the IC50 in [1] is 135 µM (active).

As to `O=S(=O)(Nc1nc2ccccc2nc1Cl)c1ccc2ccccc2c1`, the EC50 is 9.62 µM (active) in [2], 15.1 µM (active) at Streptokinase A and > 150 µM (not active) in the assay with Streptococcus.

As for `Cc1cc(OCc2ccc([N+](=O)[O-])cc2)c2c3c(c(=O)oc2c1)CCCC3`, the AC50 on Cytochrome P450 2D6 was 3.16 µM (inconclusive); on Cytochrome P450 3A4 it was 2.82 µM (inconclusive). With `CCC[C@@H]1C[C@@]1(CCC)C(NS(=O)(=O)c1cccc2cccnc12)c1ccc(Cl)cc1` (stereo partly drawn), on Cytochrome P450 2D6, the AC50 was 39.8 µM (inconclusive). Consider `O=C(CCCC(=O)c1ccccc1)Nc1ccc(O)cc1`, for which, in assay [1], the IC50 is 15.8 µM (active). For `Fc1cccc2sc(N3CCCC3)nc12`, the IC50 in “cells” was > 50 µM (active). Regarding `CC1CCN(CCc2nc3cc(NC(=O)NC4CCCCC4)ccc3n2C)CC1`, the AC50 on Cytochrome P450 2D6 was 25.1 µM (inconclusive).

On to `CC(C)(C)c1ccc(OCCC(=O)OCC(=O)NC2CC2)cc1`, for which the IC50 in the assay “cells” is 48.5 µM (active). Take `CC(=O)Nc1cccc(-c2csc(NCc3ccccc3)n2)c1`: the IC50 in assay [1] is 65 µM (active). Take `COc1ccc(/C=C/c2ccc3cccc(O)c3n2)cc1Br`: the values for the EC50 (in assay [2]; at Streptokinase A; in the assay on Streptococcus) were 0.796 µM (active), > 150 µM (not active) and 13.5 µM (active), respectively.

With `CCOC(=O)c1[nH]c(COC(=O)CCOc2ccccc2OC)c(C(=O)OCC)c1C`, on Cytochrome P450 2D6, the AC50 was 15.8 µM (inconclusive).

In the case of `N#CCSc1nc2ccc(N3CCOCC3)cc2c(=O)n1CCc1ccccc1`, the values for the EC50 (in assay [2]; on Streptokinase A; with Streptococcus) were 7.19 µM (active), > 150 µM (not active) and 13.1 µM (active), respectively. Turning to `O=C(Oc1ccccc1)c1ccc(NC(=O)c2ccco2)cc1`, the values for the IC50 (in “cells”; in [5]) were 4.4 µM (active) and > 47.1 µM (inactive), respectively. Also, the EC50 in assay [6] is > 53 µM (inactive).

Turning to `O=c1[nH]c2ccc(Cl)cc2c(-c2ccccc2)c1N1CCN(c2ccccn2)CC1`, the EC50 at Streptokinase A is 3.83 µM (active).

In the case of `COc1ccc(-c2cc(=O)oc(-c3cccc(C)c3)n2)cc1`, the IC50 in “cells” is 35.9 µM (active).

`CCOC(=O)C(=NCCOC)NNc1cc(Cl)ccc1Cl`: the IC50 in “cells” is > 50 µM (active).

As to `COc1ccc(OC(=O)c2cc(S(=O)(=O)N3CCCC3)ccc2Cl)cc1`, the IC50 in assay [1] is 63 µM (active).

Take `Fc1ccc(CSc2nnc(-c3ccccn3)o2)cc1`: the EC50 in assay [7] is 0.103 µM (active); with H4, 0.175 µM (active).

Regarding `CCCCNC(=O)Nc1nnc(-c2ccc(Cl)cc2)o1`, in the assay “cells”, the IC50 was 13.2 µM (active). For the molecule `O=c1c2ccccc2nc2oc3ccccc3n12`, the figures for the EC50 (in [7]; with H4) were 0.123 µM (active) and 0.139 µM (active), respectively.

Take `O=C(Nc1cccc(C(F)(F)F)c1)c1cc2c(=O)c3ccccc3oc2nc1C(F)(F)F`: the EC50 was 18.7 µM (active) in assay [2], 43.3 µM (inconclusive) at Streptokinase A and 65.1 µM (active) with Streptococcus.

`COc1ccc(COC(=O)N/N=C2/C[C@@H](O)[C@@H](O)[C@@H]3[C@@H]4C(=O)N(c5cccc(Oc6ccccc6)c5)C(=O)[C@H]4CC[C@H]23)cc1`: the AC50 on Cytochrome P450 2D6 is 2.51 µM (inconclusive). On to `CCN(CC)c1ccc(NC(=O)COC(=O)CCC(=O)c2cccs2)cc1`, for which the IC50 in [1] is 74.4 µM (active). As to `CCOC(=O)C(C)(C)n1nnc(-c2ccc([N+](=O)[O-])cc2)n1`, the IC50 in the assay “cells” was 45.9 µM (active). As to `O=C(NN=Cc1ccc(O)cc1O)c1ccccc1NS(=O)(=O)c1cccs1`, the IC50 in assay [1] was 110 µM (active). For the molecule `COC(=O)c1cc2c(ccc3ccccc32)oc1=O`, the IC50 in the assay “cells” was 6.54 µM (active). Regarding `COc1cc(CNCc2cccs2)ccc1OCC(=O)NC(C)(C)C`, the concentration at half-maximal activity (AC50) on Cytochrome P450 2D6 was 10 µM (inconclusive). `O/C(=C\C=N\c1ccccc1O)c1ccco1`: the IC50 in “cells” is 4.76 µM (active). `O=C(NCc1ccc(C(F)(F)F)cc1)c1ccc2c(c1)S(=O)(=O)c1ccccc1C2=O`: the EC50 (in assay [2]; at Streptokinase A; in the assay on Streptococcus) was > 150 µM (not active) each time. Regarding `C/C(=N\NC(=O)c1cc2ccccc2cc1O)c1cccs1`, the EC50 was 18.3 µM (active) in assay [2]; > 150 µM (not active) at Streptokinase A; 44.7 µM (active) in assay [3]; > 60 µM (not active) in [4]; 59.6 µM (active) in the assay with Streptococcus. Turning to `COc1cc(/C=N/NC(=O)c2ccc(N3CCCC3=O)cc2)ccc1O`, the IC50 in assay [1] is 30.8 µM (active). With `CN(C)/C=N/c1ncc(C(=O)c2ccccc2)s1`, the EC50 was 0.251 µM (active) in [7] and 119 µM (active) in the assay with H4.

Turning to `O=C1/C(=C/c2cccnc2)S/C(=N/Cc2ccccc2)N1Cc1ccccc1`, the EC50 in [2] was 21.6 µM (active); at Streptokinase A, 14.7 µM (active); in assay [3], 1.66 µM (active); in assay [4], > 60 µM (not active); with Streptococcus, > 150 µM (not active).

These data come from ChEMBL document CHEMBL1201862, “PubChem BioAssay data set” (2004).
